Results on one compound are retold here after patent publication US8575376B2, “Steroide anionic compounds, method of their production, usage and pharmaceutical preparation involving them” (Ustav Organicke Chemie A Biochemie Akademie Ved Ceske …, priority 2009, dated 2013).

Data set [1] deals with rats. Nature of the data set: Elevated plus maze (anxiety). In kind it is in vivo, rat. The protocol: The effect of i.p. administration of compound from example 9 in doses of 0.001, 0.01, and 10 mg/kg on behaviour in elevated plus maze was evaluated. The number of entrances into open arms and the total time spent in open arms were assessed.
The apparatus consisted of two opposite open arms (45 cm×10 cm) crossed at right angles with two opposite arms of the same size enclosed by walls 40 cm high, except for the central part where the arms crossed. The whole apparatus was elevated 50 cm above the floor.

Data set [2] relates to rats. Description: Footshock-induced ultrasonic vocalization (anxiety). Type of data set: in vivo, rat. The method, then:
Effect of compound from example 9 application at doses of 0.001 mg/kg, 0.01 mg/kg and 10 mg/kg on ultrasonic vocalization after exposure to stressful situation (foot-shock) as a measure of anxiety. Under conditions of stress and pain, rats are known to emit ultrasonic distress calls at a frequency of about 22 kHz. On the first day, rats were placed into the shock chamber individually and after 30 s of habituation, they received 6 inescapable electric foot-shocks (1 shock/1 minute, 1 mA) of 10 seconds duration. The procedure was repeated 24 hours later, but this time, the animals received only one 10-second shock. Afterwards, the rats were injected i.p. with vehicle (b-cyclodextrine) or the compound from example 9 at doses of 0.001, 0.01, and 10 mg/kg) 30 min prior to testing. During the test session, animals were placed into the shock chamber for 10 minutes and their ultrasonic vocalization was recorded. […] Each animal was recorded separately with a Mini-3 Bat Detector (Ultra Sound Advice, London, UK). Ultrasonic vocalizations at 22-kHz consisting of calls with a minimal duration of 300 ms were recorded and analyzed by UltraVox 2.0 program (Noldus, Wageningen, The Netherlands). The total number of vocalization events and their total duration were recorded.

Data set [3] deals with Wistar rats. Description: Thermal nociception, plantar test (limb and tail withdrawal latency). In kind it is in vivo, rat. The method, then:
The effect of the compound from example 9 was assessed on acute nociception in rat. Pain was evaluated by measurement of paw/tail withdrawal latencies. Male Wistar rats (Velaz, Czech Republic) were used. Animals were kept at 22° C. (relative humidity was 40-70%) under a 12-hour light/12-hour dark cycle. All experiments were approved by the Committee for Animal Care and conducted in accordance with the ethical guidelines of the International Association for the Study of Pain. The animals were randomly divided into experimental and testing groups groups. The compound from example 9 was dissolved in β-cyclodextrine (the concentration 1.0 mg/ml and 10 mg/kg injected intraperitoneally or β-cyclodextrine injected intraperitoneally in same volume).
Thermal nociception was determined using plantar test equipment (Ugo Basile, Italy). The latency (in seconds) of forelimb, hindlimb or tail withdrawals to the noxious thermal stimulation was measured. Each animal was placed individually in a clear plastic box with a clear glass floor, and was allowed to acclimatize for 10 min; the temperature and humidity in the testing room were kept in the same range as those in the housing rooms. The latencies were measured 3 times per session, separated by a minimum interval of 5 min, and the mean value was used for further analysis. Infrared intensity was set to 40% and the maximum cutoff value was set at 22 seconds to avoid thermal injury. The testing box was cleaned after each session.

Data set [4] has as its system rats. Nature of the data set: Prepulse inhibition of the acoustic startle response (sensorimotor gating). Type of data set: in vivo, rat. The settings on record: 1 and 10 mg/kg s.c., compound alone.
Data set [5] deals with rats. Nature of the data set: Histochemical analysis (FluoroJadeB) after bilateral NMDA-induced hippocampal lesion. The conditions noted are these: 1 mg/kg i.p. In kind it is in vivo, rat. The method, then: Animals were divided into four groups consisting of two series. First group of animals received an application of NMDA (intrahipocampally, i.h.) and compound from Example 9 (1 mg/kg, i.p.). Second group received NMDA i.h. and cyclodextrine i.p., third group obtained saline i.h. and cyclodextrin i.p. Forth group was applied with sterile saline i.h. and compound from Example 9 at a dose 1 mg/kg, i.p. Six animals from each group was sacrificed and perfused at intervals of 1-4 days after experimental manipulation.
Animals were deeply anesthetized by isoflurane (3.5%, driven by air) and fixed in the stereotaxic apparatus. Small drills were made in the skull and subsequently microinjection of NMDA (1 μl, […] NMDA in saline; pH adjusted to 7.2 by calcium dihydrogenphosphate) into both hippocampi was pursued. Coordinates of application (AP=4, L=2.5, DV=4) were localized with stereotaxic atlas (Paxinos and Watson, 2005) and verified in histological controls. Rats were again placed in soft recovery boxes after surgery and carefully monitored after surgery.
Application of compound from Example 9 was done according to experimental scheme either 30 min prior to and after NMDA application (in first series of experiments) or 30 min after lesion in the second series. Animals were perfused on days 1-4 after lesion, their brains were fixed with paraformaldehyde and sacharose solution. The brains were subsequently frozen to −70° C., and thin brain slices were prepared on cryomicrotome, stained and analyzed under light microscope.

The subject of data set [6] is C6 glioma cell line. Description: Growth of glioma cells in culture. The settings on record: 0.1 and 1 μg in 50 ml β-cyclodextrine solution, 3 div + 6 days. Type of data set: cell-based. The method, then:
The effect of compound from the example 9 (the model molecule) on growth of glioma cells was studied on C6 glioma cell line (ATTC, Rockville). The model molecule was tested at doses of 0.1 and 1 μg dissolved in 50 ml of β-cyclodextrine solution. Parallel control groups were administered by cholesterol at doses of 0.1 and 1 μg dissolved in 50 ml of β-cyclodextrine solution. The last group included in the experiment was left intact without any application.
The cells were cultivated in vitro for 3 days (div). Afterwards tested molecule was applied and the cell culture was studied for additional 6 days. Olympus microscope with phase contrast and 200× magnification was used for the cell monitoring.

For `CC(=O)[C@H]1CC[C@H]2[C@@H]3CC[C@@H]4C[C@H](OC(=O)[C@@H](N)CCC(=O)O)CC[C@]4(C)[C@H]3CC[C@]12C` [Example 9, 20-Oxo-5β-pregnan-3α-yl L-glutamyl 1-ester], the “anxiolytic effect in elevated plus maze” value in data set [1] (0.001, 0.01 and 10 mg/kg i.p.) is recorded as “pronounced dose-dependent anxiolytic effect”. For the same compound, the “number of entries into open arms” value in data set [1] (10 mg/kg i.p., p<0.05 vs control) was “significant increase of number of entries into open arms”. Further, the “anxiolytic effect, ultrasonic vocalization” value in data set [2] (0.001, 0.01 and 10 mg/kg i.p., 30 min prior to testing) was “slight dose-dependent anxiolytic effect”. Further, in data set [2] (10 mg/kg i.p.), the “total duration of ultrasonic vocalizations” value is “Significant difference”. Also, the “limb withdrawal latency to thermal stimulus” value in data set [3] (1 mg/kg i.p.) is “Such an effect was not however observed”; in data set [3] (10 mg/kg i.p., p<0.001), “significantly prolonged interval of resistance to a painful stimulus”. In addition, the “tail withdrawal reaction to thermal stimulus” value in data set [3] (10 mg/kg i.p.) was “suppressed reactivity to painful stimuli”; in data set [3] (lower dose (1 mg/kg i.p.)), “did not yield such an effect”. The “prepulse inhibition of the startle response” value in data set [4] is on record as “none of the doses of the compound from Example 9 significantly altered this parameter”. Further, the “NMDA-induced damage in caudatoputamen and thalamic nuclei (histology)” value in data set [5] was “Alleviation, but not elimination of damage”. In addition, the “NMDA-induced damage in neocortex (histology)” value in data set [5] is listed as “pronounced cessation of damage in the whole neocortex”. In addition, the “NMDA-induced damage to the hippocampus (histology)” value in data set [5] (dentate gyrus, Cornu ammonis fields, subiculum) is on record as “significant decrease of NMDA-induced damage to the hippocampus”. Also, the “effect on growth of glioma cells” value in data set [6] was “overall slight cytostatic and pro-differentiation effect on glioma cells”.
